Assay results taken from paper PMC11671014 (PLOS Pathogens, 2024).
Like-named read-outs stand apart in the source and are kept apart here. Blank lines part the entries; values can stand above or below the molecule they belong to.

Columns and labels:
[1] = tested on: P. falciparum (strain 3D7A); set-up: method as in ref [1] Sanz et al., PloS one 2012; details: 10 x IC50; ref [1] Sanz et al., PloS one 2012; cited from earlier work
[2] = tested on: P. falciparum Brazilian field isolates; assay: Ex vivo drug susceptibility of Brazilian field isolates (P. falciparum); type: cell-based
Method: (§1) Compounds were assayed on ten P. vivax isolates and seven P. falciparum Brazilian isolates collected from mono-infected patients, who had signed a written informed consent form to participate in the study, using previously described methods. The initial parasitemia ranged from 2,100–8,000 parasites/μL for P. vivax and 3,500–9,000 parasites/μL for P. falciparum isolates. Artesunate and chloroquine were assayed in parallel as standard compounds. The analyses included only the isolates that were incubated for ≥ 40 h with the compounds.

[3] = tested on: P. vivax Brazilian field isolates; assay: Ex vivo drug susceptibility of Brazilian field isolates (P. vivax); type: cell-based
Method: as §1

[4] = tested on: P. falciparum liver stage schizont (NF175); assay: Liver stage schizont assay in primary human hepatocytes (NF175); type: cell-based; details: Plasmodium falciparum, Hepatocyte, 96 h, four days
Method: Activity against liver stage parasites was performed using a modification of published procedures. Briefly, cryopreserved human primary hepatocytes (NF175: H1500.H15B+ Lot No. HC0-6, TebuBio or NF135: F00995-P Lot No. IRZ, BioIVT) were thawed and seeded at 18,000 cells per well in collagen-coated 384-well microtiter plates in medium containing 10% heat inactivated fetal bovine serum (hiFBS). Cells were cultured at 37°C in 5% CO2. For NF175, medium was replaced by fresh medium containing 10% hiFBS, 5 h post plating. For NF135, medium was replaced by medium containing 0.2% BSA, 24 h post plating. 48 h post plating, salivary glands from Plasmodium-NF175 or NF135-infected Anopheles stephensi mosquitoes were dissected, added to the hepatocytes (10,000 per well/ NF175; or 12,500 per well/ NF135) and allowed to infect for 3 hours. Sporozoites were then aspirated, and compounds diluted in medium containing 10% hiFBS or 0.2% BSA, were added to the hepatocytes. Medium containing 10% hiFBS or 0.2% BSA and compounds was refreshed daily for four days. […] Cells were imaged on a PicoExpress high content imager, and images were analysed automatically using CellReporterXpress software. Data were analysed by logistic regression using a four-parameter (Hill equation) model and a least-squares method to find the best fit.

Primary hepatocytes = assay: Toxicity to primary hepatocyte host cells in the liver stage assay; type: cell-based, human; details: Homo sapiens, Hepatocyte, host cells of the NF175 experiment
Method: Activity against liver stage parasites was performed using a modification of published procedures. Briefly, cryopreserved human primary hepatocytes (NF175: H1500.H15B+ Lot No. HC0-6, TebuBio or NF135: F00995-P Lot No. IRZ, BioIVT) were thawed and seeded at 18,000 cells per well in collagen-coated 384-well microtiter plates in medium containing 10% heat inactivated fetal bovine serum (hiFBS). Cells were cultured at 37°C in 5% CO2. For NF175, medium was replaced by fresh medium containing 10% hiFBS, 5 h post plating. For NF135, medium was replaced by medium containing 0.2% BSA, 24 h post plating. 48 h post plating, salivary glands from Plasmodium-NF175 or NF135-infected Anopheles stephensi mosquitoes were dissected, added to the hepatocytes (10,000 per well/ NF175; or 12,500 per well/ NF135) and allowed to infect for 3 hours. Sporozoites were then aspirated, and compounds diluted in medium containing 10% hiFBS or 0.2% BSA, were added to the hepatocytes. Medium containing 10% hiFBS or 0.2% BSA and compounds was refreshed daily for four days. Hepatocytes were fixed with ice-cold methanol and samples were blocked with 10% hiFBS in PBS. Schizonts were stained with rabbit anti-HSP70 in 10% hiFBS for 1–2 h followed by incubation with a mixture of secondary goat anti-rabbit AlexaFluor 594 antibody and 4′,6-diamidine-2′-phenylindole dihydrochloride (DAPI) in 10% hiFBS for 30 min. Samples were washed with PBS containing 0.05% Tween 20 between different steps. Cells were imaged on a PicoExpress high content imager, and images were analysed automatically using CellReporterXpress software. Data were analysed by logistic regression using a four-parameter (Hill equation) model and a least-squares method to find the best fit.

[5] = tested on: stage V NF54 strain male and female gametocytes; assay: P. falciparum Dual Gamete Formation Assay (PfDGFA); type: cell-based; details: Plasmodium falciparum, 48 h
Method: Inhibition of the viability of stage V male and female gametocytes was assessed in the P. falciparum Dual Gamete Formation Assay (PfDGFA) as described previously. Briefly, mature stage V NF54 strain gametocytes were incubated with test molecules for 48 h in 384-well plates at 37°C. Gametogenesis was then triggered by cooling the plates to room temperature and addition of xanthurenic acid-containing activating medium (also containing anti-Pfs25 antibody (Mab 4B7) conjugated to a Cy3 fluorophore). Twenty minutes after activation, exflagellation was imaged in all wells of the plate using a x4 objective and automated brightfield microscopy. The plate was then incubated at 20°C for a further 24 h in the dark. Thereafter, female gamete formation was quantified by automated identification of Pfs25-positive cells. Automated counts were transformed to percent inhibition values with reference to positive 100 nM Cabamiquine (DDD498) and negative (DMSO) controls. Data represent the means of multiple independent biological repeats.

Structure (SMILES): C[C@@H]1CC[C@H]2[C@@H](C)C(=O)O[C@@H]3O[C@@]4(C)CC[C@@H]1[C@]32OO4 [Artemisinin]
Lag phase [1]: 0 h
Log PRR [1]: > 4.8
PCT99.9% [1]: < 24 h

EC50 ([2]; Plasmodium falciparum; range over n = 7 isolates; read-out: EC50 range, P. falciparum Brazilian field isolates): 0.8 to 3.1 nM
EC50 ([2]; Plasmodium falciparum; read-out: Median EC50, P. falciparum Brazilian field isolates): 2.2 nM
EC50 ([3]; Plasmodium vivax; range over n = 10 isolates; read-out: EC50 range, P. vivax Brazilian field isolates): 0.8 to 3.5 nM
EC50 ([3]; Plasmodium vivax; read-out: Median EC50, P. vivax Brazilian field isolates): 1.7 nM
Structure (SMILES): C[C@H]1[C@H](OC(=O)CCC(=O)O)O[C@@H]2O[C@@]3(C)CC[C@H]4[C@H](C)CC[C@@H]1[C@@]24OO3 [Artesunate]

Structure (SMILES): O=C1C(O)=C([C@H]2CC[C@H](c3ccc(Cl)cc3)CC2)C(=O)c2ccccc21 [Atovaquone]
IC50 [4]: 7 ± 3.9 nM
IC50 (Primary hepatocytes): > 1000 nM
Lag phase [1]: 48 h
Log PRR [1]: 2.9
PCT99.9% [1]: 90 h
Slope [1]: -0.060

IC50 ([5]; female, read-out: Dual gamete formation assay (female) IC50(48h)): 2.2 ± 0.1 nM
IC50 ([5]; male, read-out: Dual gamete formation assay (male) IC50(48h)): 2.3 ± 0.4 nM
Structure (SMILES): O=C(NCCN1CCCC1)c1cc(-c2ccc(CN3CCOCC3)cc2)nc2ccc(F)cc12 [Cabamiquine, reference compound]

EC50 ([2]; Plasmodium falciparum, read-out: EC50 range, P. falciparum Brazilian field isolates): 172 to 520 nM
EC50 ([2]; Plasmodium falciparum, read-out: Median EC50, P. falciparum Brazilian field isolates): 286 nM
EC50 ([3]; Plasmodium vivax, read-out: EC50 range, P. vivax Brazilian field isolates): 104 to 560 nM
EC50 ([3]; Plasmodium vivax, read-out: Median EC50, P. vivax Brazilian field isolates): 143 nM
Structure (SMILES): CCN(CC)CCCC(C)Nc1ccnc2cc(Cl)ccc12 (stereo not shown) [Chloroquine]
Lag phase [1]: 0 h
PCT99.9% [1]: 33.8 h
Slope [1]: -0.094
